ChEMBL document CHEMBL5356985, “Development of trisubstituted thiophene-3-arboxamide selenide derivatives as novel EGFR kinase inhibitors with cytotoxic activity” (RSC Med Chem, 2023)
pIC50: −log10 of the molar value. The source made the active and inactive calls. The calls are words filed in the database; no cut-off is given here.

Legend:
A549 [1] = assay: Antiproliferative activity against human A549 cells assessed as cell growth inhibition incubated for 48 hrs by MTT assay; format: functional, cell-based; settings: A549, 48 h
HCT-116 [2] = assay: Antiproliferative activity against human HCT-116 cells assessed as cell growth inhibition incubated for 48 hrs by MTT assay; format: functional, cell-based; settings: HCT-116, 48 h
HCT-116 [3] = assay: Induction of intracellular ROS generation in human HCT-116 cells at 6.4 uM incubated for 48 hrs by DCFDA staining based fluorescence analysis; format: functional, cell-based
HCT-116 [4] = assay: Induction of mitochondrial transmembrane potential loss in human HCT-116 cells assessed as reduction in red/green fluorescence ratio at 6.4 uM incubated for 48 hrs by JC-1 staining based fluorescence microscopic analysis; format: functional, cell-based
HCT-116 [5] = assay: Induction of mitochondrial transmembrane potential loss in human HCT-116 cells assessed as reduction in red/green fluorescence ratio at 1.6 to 3.2 uM incubated for 48 hrs by JC-1 staining based fluorescence microscopic analysis; format: functional, cell-based; settings: dose 1.6-3.2 µM
HCT-116 [6] = assay: Induction of intracellular ROS generation in human HCT-116 cells at 1.6 to 3.2 uM incubated for 48 hrs by DCFDA staining based fluorescence analysis; format: functional, cell-based; settings: dose 1.6-3.2 µM
HCT-116 [7] = assay: Induction of apoptosis in human HCT-116 cells assessed as pyknotic/fragmented bright nucleus at 1.6 to 6.4 uM incubated for 48 hrs by DAPI staining based fluorescence microscopy; format: functional, cell-based; settings: dose 1.6-6.4 µM
HCT-116 [8] = assay: Induction of apoptosis in human HCT-116 cells assessed as cell shrinkage at 1.6 to 6.4 uM incubated for 48 hrs by phase-contrast microscopy; format: functional, cell-based; settings: dose 1.6-6.4 µM
HCT-116 [9] = assay: Induction of apoptosis in human HCT-116 cells assessed as reduction in number of viable cells at 1.6 to 6.4 uM incubated for 48 hrs by phase-contrast microscopy; format: functional, cell-based; settings: dose 1.6-6.4 µM
HCT-116 [10] = assay: Induction of apoptosis in human HCT-116 cells assessed as increase in necrotic cells by measuring ratio of orange-red fluorescence at 1.6 to 6.4 uM incubated for 48 hrs by Acridine orange/ethidium bromide staining based fluorescence microscopy; format: functional, cell-based; settings: dose 1.6-6.4 µM
HCT-116 [11] = assay: Induction of apoptosis in human HCT-116 cells assessed as increase in late apoptotic cells by measuring ratio of orange-red fluorescence at 1.6 to 6.4 uM incubated for 48 hrs by Acridine orange/ethidium bromide staining based fluorescence microscopy; format: functional, cell-based; settings: dose 1.6-6.4 µM
HCT-116 [12] = assay: Induction of apoptosis in human HCT-116 cells assessed as chromatin condensation at 1.6 to 6.4 uM incubated for 48 hrs by DAPI staining based fluorescence microscopy; format: functional, cell-based; settings: dose 1.6-6.4 µM
HCT-116 [13] = assay: Induction of apoptosis in human HCT-116 cells assessed as horse shoe-shaped nuclear morphological change at 1.6 to 6.4 uM incubated for 48 hrs by DAPI staining based fluorescence microscopy; format: functional, cell-based; settings: dose 1.6-6.4 µM
HCT-116 [14] = assay: Induction of apoptosis in human HCT-116 cells assessed as cell shape alteration at 1.6 to 6.4 uM incubated for 48 hrs by phase-contrast microscopy; format: functional, cell-based; settings: dose 1.6-6.4 µM
HCT-116 [15] = assay: Induction of apoptosis in human HCT-116 cells assessed as necrotic cells at 3.2 uM incubated for 48 hrs by annexin V-FITC and propidium iodide staining based flow cytometry (Rvb=13.42%); format: functional
MCF7 [16] = assay: Antiproliferative activity against human MCF7 cells assessed as cell growth inhibition incubated for 48 hrs by MTT assay; format: functional, cell-based; settings: MCF7, 48 h
SK-MEL-28 [17] = assay: Antiproliferative activity against human SK-MEL-28 cells assessed as cell growth inhibition incubated for 48 hrs by MTT assay; format: functional, cell-based; settings: SK-MEL-28, 48 h
[18] = Cytotoxicity against human HaCaT cells assessed as cell growth inhibition incubated for 48 hrs by MTT assay; format: toxicity, cell-based
A549 [19] = assay: Antiproliferative activity against human A549 cells assessed as cell growth inhibition at 20 uM incubated for 48 hrs by MTT assay; format: functional
HCT-116 [20] = assay: Antiproliferative activity against human HCT-116 cells assessed as cell growth inhibition at 20 uM incubated for 48 hrs by MTT assay; format: functional
MCF7 [21] = assay: Antiproliferative activity against human MCF7 cells assessed as cell growth inhibition at 20 uM incubated for 48 hrs by MTT assay; format: functional
SK-MEL-28 [22] = assay: Antiproliferative activity against human SK-MEL-28 cells assessed as cell growth inhibition at 20 uM incubated for 48 hrs by MTT assay; format: functional
HCT-116 [23] = assay: Induction of apoptosis in human HCT-116 cells assessed as necrotic cells at 1.6 uM incubated for 48 hrs by annexin V-FITC and propidium iodide staining based flow cytometry (Rvb=13.42%); format: functional
HCT-116 [24] = assay: Induction of apoptosis in human HCT-116 cells assessed as necrotic cells at 6.4 uM incubated for 48 hrs by annexin V-FITC and propidium iodide staining based flow cytometry (Rvb=13.42%); format: functional
HCT-116 [25] = assay: Induction of apoptosis in human HCT-116 cells assessed as late apoptotic cells at 1.6 uM incubated for 48 hrs by annexin V-FITC and propidium iodide staining based flow cytometry (Rvb=13.51%); format: functional
HCT-116 [26] = assay: Induction of apoptosis in human HCT-116 cells assessed as late apoptotic cells at 3.2 uM incubated for 48 hrs by annexin V-FITC and propidium iodide staining based flow cytometry (Rvb=13.51%); format: functional
HCT-116 [27] = assay: Induction of apoptosis in human HCT-116 cells assessed as late apoptotic cells at 6.4 uM incubated for 48 hrs by annexin V-FITC and propidium iodide staining based flow cytometry (Rvb=13.51%); format: functional
HCT-116 [28] = assay: Induction of apoptosis in human HCT-116 cells assessed as early apoptotic cells at 1.6 uM incubated for 48 hrs by annexin V-FITC and propidium iodide staining based flow cytometry (Rvb=4.44%); format: functional
HCT-116 [29] = assay: Induction of apoptosis in human HCT-116 cells assessed as early apoptotic cells at 3.2 uM incubated for 48 hrs by annexin V-FITC and propidium iodide staining based flow cytometry (Rvb=4.44%); format: functional
HCT-116 [30] = assay: Induction of apoptosis in human HCT-116 cells assessed as early apoptotic cells at 6.4 uM incubated for 48 hrs by annexin V-FITC and propidium iodide staining based flow cytometry (Rvb=4.44%); format: functional
HCT-116 [31] = assay: Induction of apoptosis in human HCT-116 cells assessed as live cells at 1.6 uM incubated for 48 hrs by annexin V-FITC and propidium iodide staining based flow cytometry (Rvb=68.64%); format: functional
HCT-116 [32] = assay: Induction of apoptosis in human HCT-116 cells assessed as live cells at 3.2 uM incubated for 48 hrs by annexin V-FITC and propidium iodide staining based flow cytometry (Rvb=68.64%); format: functional
HCT-116 [33] = assay: Induction of apoptosis in human HCT-116 cells assessed as live cells at 6.4 uM incubated for 48 hrs by annexin V-FITC and propidium iodide staining based flow cytometry (Rvb=68.64%); format: functional
HCT-116 [34] = assay: Anti-metastatic activity against human HCT-116 cells assessed as inhibition of cell migration by measuring wound width at 1.6 uM and measured at 0 hrs by scratch wound healing assay (Rvb=287.904 micrometer); format: functional
HCT-116 [35] = assay: Anti-metastatic activity against human HCT-116 cells assessed as inhibition of cell migration by measuring wound width at 3.2 uM and measured at 0 hrs by scratch wound healing assay (Rvb=287.904 micrometer); format: functional
HCT-116 [36] = assay: Anti-metastatic activity against human HCT-116 cells assessed as inhibition of cell migration by measuring wound width at 6.4 uM and measured at 0 hrs by scratch wound healing assay (Rvb=287.904 micrometer); format: functional
HCT-116 [37] = assay: Anti-metastatic activity against human HCT-116 cells assessed as inhibition of cell migration by measuring wound width at 1.6 uM and measured at 48 hrs by scratch wound healing assay (Rvb=179.681 micrometer); format: functional
HCT-116 [38] = assay: Anti-metastatic activity against human HCT-116 cells assessed as inhibition of cell migration by measuring wound width at 3.2 uM and measured at 48 hrs by scratch wound healing assay (Rvb=179.681 micrometer); format: functional
HCT-116 [39] = assay: Anti-metastatic activity against human HCT-116 cells assessed as inhibition of cell migration by measuring wound width at 6.4 uM and measured at 48 hrs by scratch wound healing assay (Rvb=179.681 micrometer); format: functional
HCT-116 [40] = assay: Anti-metastatic activity against human HCT-116 cells assessed as inhibition of cell migration at 1.6 to 6.4 uM and measured at 48 hrs by scratch wound healing assay; format: functional, cell-based; settings: dose 1.6-6.4 µM
[41] = molecular target: Epidermal growth factor receptor (Homo sapiens, UniProt P00533); assay: Inhibition of EGFR (unknown origin) using poly E4Y1 and ATP as substrate incubated for 60 mins by ADP-Glo kinase assay
Sequence of Epidermal growth factor receptor (P00533 whole entry): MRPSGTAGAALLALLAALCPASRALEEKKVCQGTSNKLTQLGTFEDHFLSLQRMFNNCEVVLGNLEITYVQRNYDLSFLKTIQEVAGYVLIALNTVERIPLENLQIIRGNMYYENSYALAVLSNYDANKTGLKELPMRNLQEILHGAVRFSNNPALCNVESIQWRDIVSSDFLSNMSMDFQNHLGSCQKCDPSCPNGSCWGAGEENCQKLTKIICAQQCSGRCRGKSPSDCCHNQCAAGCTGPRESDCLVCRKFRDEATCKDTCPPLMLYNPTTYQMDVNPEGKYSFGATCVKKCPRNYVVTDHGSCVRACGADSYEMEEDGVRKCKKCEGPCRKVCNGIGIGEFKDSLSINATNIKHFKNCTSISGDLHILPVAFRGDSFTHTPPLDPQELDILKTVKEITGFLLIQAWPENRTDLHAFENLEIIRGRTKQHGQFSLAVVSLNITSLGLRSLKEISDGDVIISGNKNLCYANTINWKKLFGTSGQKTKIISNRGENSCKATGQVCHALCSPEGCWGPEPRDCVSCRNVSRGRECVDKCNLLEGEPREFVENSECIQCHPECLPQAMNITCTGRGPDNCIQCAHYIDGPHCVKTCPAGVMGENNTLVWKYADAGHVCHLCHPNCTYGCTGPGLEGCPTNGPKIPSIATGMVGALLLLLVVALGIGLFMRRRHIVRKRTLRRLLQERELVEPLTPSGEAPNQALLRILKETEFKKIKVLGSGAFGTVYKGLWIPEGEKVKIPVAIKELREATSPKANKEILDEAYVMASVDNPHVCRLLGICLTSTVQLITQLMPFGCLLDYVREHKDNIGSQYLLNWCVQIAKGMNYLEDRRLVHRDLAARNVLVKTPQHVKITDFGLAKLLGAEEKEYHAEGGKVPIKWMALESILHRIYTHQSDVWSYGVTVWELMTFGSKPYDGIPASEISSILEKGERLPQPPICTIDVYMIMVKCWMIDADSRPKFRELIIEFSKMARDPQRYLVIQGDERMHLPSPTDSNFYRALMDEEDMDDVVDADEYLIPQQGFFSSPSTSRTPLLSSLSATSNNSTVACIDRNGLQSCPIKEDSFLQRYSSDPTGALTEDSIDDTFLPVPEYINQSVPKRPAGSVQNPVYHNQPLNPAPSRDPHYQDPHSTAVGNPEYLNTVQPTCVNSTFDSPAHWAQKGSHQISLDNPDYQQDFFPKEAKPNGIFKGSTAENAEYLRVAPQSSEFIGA

## Cc1sc([Se]c2sc(C)c(-c3cccc(Br)c3)c2C(=O)NC(CO)C(=O)N2CCCC2)c(C(=O)NC(CO)C(=O)N2CCCC2)c1-c1cccc(Br)c1 (stereo unspecified)
A549 [1]
  pIC50: 5.10
HCT-116 [2]
  pIC50: 5.49
HCT-116 [3]
  Activity: Active
HCT-116 [4]
  Activity: Active
HCT-116 [5]
  Activity: Dose-Dependent Effect
HCT-116 [6]
  Activity: Dose-Dependent Effect
HCT-116 [7]
  Activity: Active
HCT-116 [8]
  Activity: Dose-Dependent Effect
HCT-116 [9]
  Activity: Dose-Dependent Effect
HCT-116 [10]
  Activity: Dose-Dependent Effect
HCT-116 [11]
  Activity: Dose-Dependent Effect
HCT-116 [12]
  Activity: Active
HCT-116 [13]
  Activity: Active
HCT-116 [14]
  Activity: Dose-Dependent Effect
HCT-116 [15]
  Activity: 12.61%
MCF7 [16]
  pIC50: 5.09
SK-MEL-28 [17]
  pIC50: 5.06
[18]
  IC50 at 48 h: 24 µM
A549 [19]
  inhibition at 20 µM: 90%
HCT-116 [20]
  inhibition at 20 µM: 75%
MCF7 [21]
  inhibition at 20 µM: 90%
SK-MEL-28 [22]
  inhibition at 20 µM: 78%
HCT-116 [23]
  Activity: 10.1%
HCT-116 [24]
  Activity: 5.47%
HCT-116 [25]
  Activity: 27.98%
HCT-116 [26]
  Activity: 43.71%
HCT-116 [27]
  Activity: 88.93%
HCT-116 [28]
  Activity: 8.97%
HCT-116 [29]
  Activity: 11.75%
HCT-116 [30]
  Activity: 3.04%
HCT-116 [31]
  Activity: 52.95%
HCT-116 [32]
  Activity: 32.12%
HCT-116 [33]
  Activity: 2.56%
HCT-116 [34]
  Activity: 257.433 um
HCT-116 [35]
  Activity: 296.312 um
HCT-116 [36]
  Activity: 275.298 um
HCT-116 [37]
  Activity: 235.37 um
HCT-116 [38]
  Activity: 276.354 um
HCT-116 [39]
  Activity: 267.94 um
HCT-116 [40]
  Activity: Dose-Dependent Effect
[41]
  pIC50: 7.02
